Reference: patent publication US20210115104A1, “AMYLIN ANALOGUES” (Zealand Pharma A/S, priority 2015, published 2021)
*1 amine or outer side, *2 acyl side, *3 side chain or, on linkers, in order; H or OH if unused. Where a SMILES comes first, the peptide text is derived from it. Bridges are numbered along the chain shown (N, C = ends). [ ]: non-standard residue; d: D form. The star is where a group is joined. C20 diacid = O=C(O)CCCCCCCCCCCCCCCCCCC(=O)*; γGlu = O=C(O)[C@H](CCC(=O)[*:2])N[*:1]; Hyp = O=C(O)[C@@H]1C[C@@H](O)CN1; NMeI = CC[C@H](C)[C@H](NC)C(=O)O; Sar = CNCC(=O)O

Tests used:
[1] = target: T1, human calcitonin receptor (hCTR2) (Homo sapiens, UniProt P30988); test: hCTR2 cAMP assay (AlphaScreen) in COS7 cells; format: cell-based; settings: cAMP induction, COS7 cells expressing hCTR2; Table 1; read-out: hCTR2 EC50
T1 construct: expressed in transfected cells
T1 sequence (P30988 25-474): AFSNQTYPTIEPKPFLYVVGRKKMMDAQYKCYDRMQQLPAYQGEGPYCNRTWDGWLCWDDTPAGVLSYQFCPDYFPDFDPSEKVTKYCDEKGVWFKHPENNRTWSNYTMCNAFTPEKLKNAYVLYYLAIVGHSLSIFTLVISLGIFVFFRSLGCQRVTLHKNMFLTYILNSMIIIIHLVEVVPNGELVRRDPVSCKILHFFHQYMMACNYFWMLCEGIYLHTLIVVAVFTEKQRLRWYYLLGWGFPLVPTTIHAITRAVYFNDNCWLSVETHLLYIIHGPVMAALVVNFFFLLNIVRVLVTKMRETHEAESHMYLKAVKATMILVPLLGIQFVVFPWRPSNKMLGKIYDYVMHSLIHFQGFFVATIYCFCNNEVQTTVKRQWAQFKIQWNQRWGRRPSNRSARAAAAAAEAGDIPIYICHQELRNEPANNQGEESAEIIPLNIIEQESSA
Outline: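 Stable hCTR2 clone in RAMP-naïve COS7 cells stimulated 15 min at 37 °C with increasing peptide concentrations in Tyrode buffer pH 7.4 containing IBMX and 0.1% casein. cAMP in lysates measured by AlphaScreen; EC50 from 4-parameter logistic fit.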

[2] = target: T2, human amylin receptor 3 (hAMYR3), hCTR2 co-expressed with hRAMP3 (Homo sapiens, UniProt O60896+P30988); test: hAMYR3 cAMP assay (AlphaScreen) in COS7 cells; format: cell-based; settings: cAMP induction, COS7 cells expressing hAMYR3; Table 1; read-out: hAMYR3 EC50
T2 construct: expressed in transfected cells
T2 sequence (P30988 25-474): T1 sequence (P30988 25-474)
T2 sequence (O60896 24-148 partner): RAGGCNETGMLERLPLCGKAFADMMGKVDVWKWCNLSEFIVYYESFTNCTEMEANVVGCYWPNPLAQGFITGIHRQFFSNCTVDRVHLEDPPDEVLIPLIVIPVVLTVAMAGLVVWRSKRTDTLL
Outline: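 Stable COS7 clone co-expressing hCTR2 and hRAMP3 was exposed to increasing peptide concentrations in Tyrode buffer (pH 7.4) with 100 µM IBMX and 0.1% casein for 15 min at 37 °C. Lysate cAMP was measured by AlphaScreen; EC50 came from 4-parameter logistic fitting.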

[3] = Assessment of physical stability (Thioflavin T fibrillation); format: physicochemical; design: key: FND = fibrillation not detected; FD = fibrillation detected; settings: 1 mg/ml, 40° C., ThT; for Fibrillation pH 4.0 (Ac): 50 mM acetate buffer pH 4.0, 96 hours; for Fibrillation pH 7.0 (His): 50 mM histidine buffer pH 7.0, 96 hours; for Fibrillation pH 7.0 (Phos.): 50 mM phosphate buffer pH 7.0, 96 hours
Outline: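 1 mg/ml peptide with 40 μM ThT in 50 mM phosphate pH 7.0, 50 mM histidine pH 7.0 or 50 mM acetate pH 4.0, in triplicate. Fluorescence read every 10 min after 300 s agitation over 96 h at 40 °C. Lag-time (h) is the intersection of linear fits to stable and growth phases.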

[4] = Assessment of chemical stability (RP-HPLC normalized purity); format: physicochemical; settings: 7 days, 40° C., Table 1; for Normalized purity after 7 days, 40° C., pH 4: pH 4, 0.2 mg/ml; for Normalized purity after 7 days, 40° C., pH 6: pH 6, 0.2 mg/ml; for Normalized purity after 7 days, 40° C., pH 7.5: pH 7.5, 0.2 mg/ml; for Normalized purity after 7 days, 40° C., pH 9: pH 9, 0.2 mg/ml
Outline: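 Peptides at 0.2 mg/ml in water adjusted to pH 4, 6, 7.5 or 9, incubated at 40° C for 7 days. Main-peak area-% by RP-HPLC (C8 ammonium formate or C18 TFA gradient, UV 220 nm), normalized to T=0 as 100.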

| Structure (SMILES) | EC50 [1] [nM] | EC50 [2] [nM] | Fibrillation pH 4.0 (Ac) [3] | Fibrillation pH 7.0 (His) [3] | Fibrillation pH 7.0 (Phos.) [3] | Normalized purity after 7 days, 40° C., pH 4 [4] | Normalized purity after 7 days, 40° C., pH 6 [4] | Normalized purity after 7 days, 40° C., pH 7.5 [4] | Normalized purity after 7 days, 40° C., pH 9 [4] |
| --- | --- | --- | --- | --- | --- | --- | --- | --- | --- |
| CC[C@H](C)[C@@H](C(=O)N[C@@H](CC(C)C)C(=O)N[C@@H](CO)C(=O)N[C@@H](CO)C(=O)N[C@H](C(=O)N[C@@H](CC(=O)O)C(=O)N[C@H](C(=O)NCC(=O)N[C@@H](CO)C(=O)N[C@@H](CC(N)=O)C(=O)N[C@H](C(=O)N1C[C@H](O)C[C@H]1C(N)=O)[C@@H](C)O)C(C)C)[C@@H](C)O)N(C)C(=O)[C@H](C)NC(=O)CN(C)C(=O)[C@H](Cc1ccccc1)NC(=O)[C@H](CO)NC(=O)[C@H](CO)NC(=O)[C@H](CCCNC(=N)N)NC(=O)[C@H](CCC(N)=O)NC(=O)[C@H](CC(C)C)NC(=O)[C@H](Cc1ccccc1)NC(=O)[C@H](Cc1c[nH]cn1)NC(=O)[C@H](C)NC(=O)[C@H](CC(C)C)NC(=O)[C@H](CCCNC(=N)N)NC(=O)[C@H](CC(=O)O)NC(=O)[C@@H](NC(=O)[C@H](C)NC(=O)[C@@H]1CSSC[C@H](NC(=O)[C@H](CCCNC(=N)N)NC(=O)CC[C@H](NC(=O)CCCCCCCCCCCCCCCCCCC(=O)O)C(=O)O)C(=O)N2CCC[C@H]2C(=O)N[C@@H]([C@@H](C)O)C(=O)N[C@@H](C)C(=O)N[C@@H]([C@@H](C)O)C(=O)N1)[C@@H](C)O [Compound 59, [19CD]-isoGlu-R-C( )-PTAT-C( )-ATDRLAHFLQRSSF-Gly(Me)-A-Ile(Me)-LSSTDVGSNT-Hyp-NH2] ({C20 diacid-γGlu}-RCPTATCATDRLAHFLQRSSF[Sar]A[NMeI]LSSTDVGSNT[Hyp]-NH2; disulfide 2-7) | 0.03 | 0.11 | FND | FD | FD | A (A = >90%) | B (B = 70-90%) | C (C = <70%) | B (B = 70-90%) |
| CC[C@H](C)[C@@H](C(=O)N[C@@H](CC(C)C)C(=O)N[C@@H](CO)C(=O)N[C@@H](CO)C(=O)N[C@H](C(=O)N[C@@H](CCC(=O)O)C(=O)N[C@H](C(=O)NCC(=O)N[C@@H](CO)C(=O)N[C@@H](CC(=O)O)C(=O)N[C@H](C(=O)N1C[C@H](O)C[C@H]1C(N)=O)[C@@H](C)O)C(C)C)[C@@H](C)O)N(C)C(=O)[C@H](C)NC(=O)CN(C)C(=O)[C@H](Cc1ccccc1)NC(=O)[C@H](CO)NC(=O)[C@H](CO)NC(=O)[C@H](CCCNC(=N)N)NC(=O)[C@H](CCC(N)=O)NC(=O)[C@H](CC(C)C)NC(=O)[C@H](Cc1ccccc1)NC(=O)[C@H](Cc1c[nH]cn1)NC(=O)[C@H](C)NC(=O)[C@H](CC(C)C)NC(=O)[C@H](CCCNC(=N)N)NC(=O)[C@H](CCC(=O)O)NC(=O)[C@@H](NC(=O)[C@H](C)NC(=O)[C@@H]1CSSC[C@H](NC(=O)[C@H](CCCNC(=N)N)NC(=O)CC[C@H](NC(=O)CCCCCCCCCCCCCCCCCCC(=O)O)C(=O)O)C(=O)N[C@@H](CC(N)=O)C(=O)N[C@@H]([C@@H](C)O)C(=O)N[C@@H](C)C(=O)N[C@@H]([C@@H](C)O)C(=O)N1)[C@@H](C)O [Compound 60, [19CD]-isoGlu-R-C( )-NTAT-C( )-ATERLAHFLQRSSF-Gly(Me)-A-Ile(Me)-LSSTEVGSDT-Hyp-NH2] ({C20 diacid-γGlu}-RCNTATCATERLAHFLQRSSF[Sar]A[NMeI]LSSTEVGSDT[Hyp]-NH2; disulfide 2-7) | 0.08 | 0.09 | FND | FND | FND | A (A = >90%) | A (A = >90%) | A (A = >90%) | B (B = 70-90%) |
